Laboratory results reported in PMC12040169 (PLOS Biology, 2025).

Assay: in vitro
Conditions: human, hela cells, % viability

Question: Which viability at 28.5 h, 10 µM does the source give for `CS(=O)(=O)N(CC(=O)N/N=C/c1ccncc1)c1ccccc1Br` [CBK263911] here?
Answer: 100%

Question: With `O=S(=O)(Nc1cccc2[nH]ccc12)c1sc(Cl)cc1Br` [CBK153552] as the compound, how does the viability at 28.5 h, 10 µM read?
Answer: 69%

Question: Which viability at 28.5 h, 10 µM does the source give for `O=C(NCC(CO)Cc1ccsc1)N1CCN(c2ccncc2)CC1` (stereo not drawn) [CBK306929] here?
Answer: 96.7%

Question: With `Nc1ncnc2c1ccn2[C@H]1C[C@@H](O)[C@@H](CO)O1` [CBK201258] as the compound, how does the viability at 28.5 h, 10 µM read?
Answer: 95.5%

Question: Which viability at 28.5 h, 10 µM does the source give for `COc1ccc(-c2nnc3ccc(SC(C)C)nn23)cc1OC` [CBK287526] here?
Answer: 101%

Question: For `CCn1c(N2CCCC(C(=O)NC3CC3)C2)nc2ccccc21` (stereo not drawn) [CBK282419], which viability at 28.5 h, 10 µM is on record?
Answer: 106%

Question: For `O=C(CN(c1ccccc1)S(=O)(=O)c1ccccc1)N1CCN(Cc2ccc3c(c2)OCO3)CC1` [CBK265290], which viability at 28.5 h, 10 µM is on record?
Answer: 90%

Question: With `CCCc1n[nH]c(C2CC2)c1C(=O)OCC` [CBK115714] as the compound, how does the viability at 28.5 h, 10 µM read?
Answer: 115%

Question: Which viability at 28.5 h, 10 µM does the source give for `CCSc1ccc(-c2cc(N(C)c3cccc(C)c3)n3nccc3n2)cc1` [CBK037115] here?
Answer: 100%

Question: With `O=C(Cc1ccccc1F)NCCn1nc(-c2ccco2)ccc1=O` [CBK283705] as the compound, how does the viability at 28.5 h, 10 µM read?
Answer: 96.9%

Question: With `Cc1cc(COc2nc3ccccc3nc2NC[C@@H]2CCCO2)no1` [CBK174027] as the compound, how does the viability at 28.5 h, 10 µM read?
Answer: 119%

Question: For `O=C(NCN1CCN(c2ccccc2F)CC1)c1cccnc1` [CBK265530], which viability at 28.5 h, 10 µM is on record?
Answer: 90%

Question: Which viability at 28.5 h, 10 µM does the source give for `COc1cccc(CC(=O)Nc2ncccc2O)c1` [CBK305047] here?
Answer: 95.3%

Question: Which viability at 28.5 h, 10 µM does the source give for `O=C(Nc1ccc2n(c1=O)C[C@H]1C[C@@H]2CN(C(=O)Cc2cccs2)C1)c1ccccc1` [CBK288709] here?
Answer: 82.4%

Question: For `COc1ccc(Cl)cc1N(CC(=O)Nc1ccccc1C(=O)O)S(C)(=O)=O` [CBK264137], which viability at 28.5 h, 10 µM is on record?
Answer: 96.9%

Question: Which viability at 28.5 h, 10 µM does the source give for `CS(=O)(=O)CCNC(=O)c1cnc(-c2cccc(C(F)(F)F)c2)c(-c2ccncc2)c1` [CBK036661] here?
Answer: 105%

Question: With `Cc1ccccc1-c1ccccc1CC1(C(N)=O)CCN(C(=O)c2ccccc2)CC1` [CBK285721] as the compound, how does the viability at 28.5 h, 10 µM read?
Answer: 89.9%

Question: For `Cc1ccc(-c2nn(CCC#N)cc2C(=O)N2CCCCC2)cc1C` [CBK306131], which viability at 28.5 h, 10 µM is on record?
Answer: 94.4%

Question: Which viability at 28.5 h, 10 µM does the source give for `COc1cc(C=O)ccc1OCC(=O)Nc1ccc(C)c(Cl)c1` [CBK266190] here?
Answer: 111%

Question: With `CC(C)C(C(=O)O)N1C(=O)C2C3C=CC(C3)C2C1=O` (stereo not drawn) [CBK286535] as the compound, how does the viability at 28.5 h, 10 µM read?
Answer: 84%

Question: With `O=C(CC1SCCNC1=O)NCc1ccccc1` (stereo not drawn) [CBK270202] as the compound, how does the viability at 28.5 h, 10 µM read?
Answer: 99.1%

Question: For `O=C(Cn1c(-c2ccco2)cc2cccnc21)N1CCCC1` [CBK282683], which viability at 28.5 h, 10 µM is on record?
Answer: 84.8%

Question: Which viability at 28.5 h, 10 µM does the source give for `O=C(Cc1cc(F)cc(F)c1F)N1CCC(Sc2ccc(-c3ccccc3)cc2)CC1` [CBK131952] here?
Answer: 94.5%

Question: For `CCOC(=O)c1ccc(-c2ccc(/C=N/N=C3\NC(=O)C(CC(=O)O)S3)o2)cc1` (stereo not drawn) [CBK264474], which viability at 28.5 h, 10 µM is on record?
Answer: 108%

Question: Which viability at 28.5 h, 10 µM does the source give for `Cn1cnc([N+](=O)[O-])c1Oc1ccccc1OCc1ccccc1` [CBK002747] here?
Answer: 91.7%

Question: With `Cc1cc(C)c2c(n1)oc1c(Cl)ncnc12` [CBK008822] as the compound, how does the viability at 28.5 h, 10 µM read?
Answer: 93%

Question: With `Cc1cccc(CC(=O)N2CCC(Cc3cccc(-c4cccs4)c3)(C(N)=O)CC2)c1` [CBK285752] as the compound, how does the viability at 28.5 h, 10 µM read?
Answer: 107%

Question: With `NS(=O)(=O)c1ccc(C(=O)N2CCC3(CCN(C(=O)c4cc(F)c(F)cc4F)C3)C2)cc1` (stereo not drawn) [CBK131385] as the compound, how does the viability at 28.5 h, 10 µM read?
Answer: 104%

Question: Which viability at 28.5 h, 10 µM does the source give for `O=C(NCc1cccc2ccccc12)N1CCCCC1CO` (stereo not drawn) [CBK156167] here?
Answer: 99.7%

Question: For `CCCn1ncc(C(=O)N2CCC(Oc3ccccc3F)CC2)c1C` [CBK282169], which viability at 28.5 h, 10 µM is on record?
Answer: 115%

Question: Which viability at 28.5 h, 10 µM does the source give for `Cc1cccc(OCC2CCCN(C(=O)CCc3nncn3C)C2)c1` (stereo not drawn) [CBK306640] here?
Answer: 88.8%

Question: With `COc1ccc(C2=C(Nc3ccc(C(=O)NCc4cccnc4)cc3)c3ccccc3C2=O)cc1` [CBK263809] as the compound, how does the viability at 28.5 h, 10 µM read?
Answer: 89.1%

Question: With `Cc1cc2ccccc2n2c(=O)n(CCNC(=O)C(C)C)nc12` [CBK282876] as the compound, how does the viability at 28.5 h, 10 µM read?
Answer: 84.2%

Question: Which viability at 28.5 h, 10 µM does the source give for `O=C(c1ccco1)N1CCc2c([nH]c3ccccc23)C12CCN(Cc1ccccc1)CC2` [CBK286313] here?
Answer: 91%

Question: For `Nc1nonc1C(=O)NCc1cccnc1` [CBK025695], which viability at 28.5 h, 10 µM is on record?
Answer: 95.9%

Same assay, conditions: human, hela cells, % viability, bulk resorufin, single well

Question: For `Cc1ccc(Cl)cc1N1CCNCC1` [CBK013402], which viability at 28.5 h, 10 µM is on record?
Answer: 94.6%
